Measurements: US20210029995A1, “Use of Volatile Organic Compounds as Pesticides” (Certis Europe B.V., priority 2018, published 2021)
Where a name gives a salt, the structure may show the parent alone.

What was measured:
H. bacteriophora [1] = conditions: 20 μl VOC, checked after 24 hr, sealed Petri dish
Protocol: (§1) Authenticated M. brunneum VOCs, along with other selected VOCs, were screened for nematicidal activity against S. feltiae and H. bacteriophora. […] Each Petri dish (90 mm) contained 20 ml of the water agar medium. The inoculated plates were kept in darkness for 3 hr at room temperature to acclimatize. The plates were then exposed to 20 μl of the VOC dispensed from a 8 mm paper disc (Whatman™, 0.34 mm thickness) positioned on a 25×25 mm glass coverslip placed in the centre of the Petri dish lid (FIG. 1A). The plates were sealed with a double layer of Parafilm and were kept in the dark at 21° C. and checked after 24 hr. The number of live and dead nematodes were counted with the aid of a stereo binocular microscope (30×).
(§2) The deposition was predetermined using bacterial cultures highly sensitive to these VOCs. The edge of the circular zone of inhibition delineated the area of activity.
(§3) Mean of mortality was calculated from the total number of alive and dead individuals across all circles. There were five replicates per treatment and the whole experiment was repeated twice.

S. feltiae [2] = conditions: 20 μl VOC, checked after 24 hr, sealed Petri dish
Protocol: as §1, §2, §3

S. carpocapsae = assay: Dose mortality assay for the EPNs (Example 2); type: in vivo, Steinernema carpocapsae; conditions: for mortality: after 24 hr
Protocol: (§4) All statistical analyses were carried out using RStudio statistics package (RStudio, Inc. version 1.0.153), using “MASS” and “multcomp” packages. For all mortality data, differential sensitivity between EPN species and/or insect species and differential compound potency were determined using a generalised linear model (GLM) and Tukey's range test in post-hoc analysis. LD50 values were calculated using a GLM and the “dose.p” function within the “MASS” package. An ANOVA was carried out on the chemotactic responses of EPNs to VOCs, with the strength of response compared at each time and concentration. Welch's t-tests were used to compare means of mortality results in the final EPNs efficacy assay.
(§5) Dose mortality assays were performed using 3-octanone and 1-octen-3-ol. The assays were performed as described in Example 1, except that the EPNs (S. carpocapsae (Sc), S. feltiae (Sf) and H. bacteriophora (Hb)) were exposed to different doses of the VOCs (5, 10, 15 and 20 μl). The mortality was recorded as described previously at 3, 6, 12 and 24 hr post treatment. Controls included EPNs only (no VOC) and EPNs+1-octene. The results are shown in FIG. 2 (results 3 hr post treatment), 3 (results 6 hr post treatment), 4 (results 12 hr post treatment) & 5 (results 24 hr post treatment).

S. feltiae [3] = assay: Dose mortality assay for the EPNs (Example 2); type: in vivo, Steinernema feltiae
Protocol: as §4, §5

H. bacteriophora [4] = assay: Dose mortality assay for the EPNs (Example 2); type: in vivo, Heterorhabditis bacteriophora
Protocol: as §4, §5

[5] = system: S. carpocapsae, S. feltiae and H. bacteriophora; assay: Dose mortality assay, statement for all three EPNs; type: in vivo; conditions: for mortality: all three EPNs, after 24 hr
Protocol: (§6) Authenticated M. brunneum VOCs, along with other selected VOCs, were screened for nematicidal activity against S. feltiae and H. bacteriophora. 750 μl of nematode suspension containing approximately 5000 Us in tap water, was spread uniformly over the water agar surface (2.6% w/v agar, 5 mM potassium phosphate pH 6, 1 mM CaCl2 and 1 mM MgSO4) of a Petri dish. Each Petri dish (90 mm) contained 20 ml of the water agar medium. The inoculated plates were kept in darkness for 3 hr at room temperature to acclimatize. The plates were then exposed to 20 μl of the VOC dispensed from a 8 mm paper disc (Whatman™, 0.34 mm thickness) positioned on a 25×25 mm glass coverslip placed in the centre of the Petri dish lid (FIG. 1A). The plates were sealed with a double layer of Parafilm and were kept in the dark at 21° C. and checked after 24 hr. The number of live and dead nematodes were counted with the aid of a stereo binocular microscope (30×).
as §5, with “EPNs+1-octene.” for “EPNs+1-octene. The results are shown in FIG. 2 (results 3 hr post treatment), 3 (results 6 hr post treatment), 4 (results 12 hr post treatment) & 5 (results 24 hr post treatment).”

[6] = system: root knot nematode M. hapla; conditions: for nematicidal activity against M. hapla: 5 μl and 10 μl
Protocol: as §6
A study was conducted to determine the susceptibility of the root knot nematode M. hapla, a major crop pest, to 3-octanone and 1-octen-3-ol. Single egg-mass populations of M. hapla were kindly provided by Dr Ivan Grove (Harper Adams University/Crop and Environment Sciences). Four-week-old tomato plants (Solanum lycopersicum cv. Rutgers) were grown in a greenhouse. Soil in each pot was infested by pipetting egg masses of M. hapla suspended in tap water and cultivated at approximately 25±2° C. in a greenhouse. Six months following inoculation, tomato plants were uprooted and root systems were carefully washed with running tap water to remove adhered soil. The roots were cut into small pieces and extracted by the Baermann funnel method for 3-5 days to obtain live nematodes. The inoculum concentration included a range of life stages and was adjusted to approximately 2000 individuals using tap water by the aid of a haemocytometer. A mortality assay was carried out as described in Examples 1 and 2 above. The assay was carried out at two doses of the VOCs (5 μl and 10 μl) and the mortality was recorded at 3, 6 and 24 hr post treatment. There were three replicates per treatment and the whole experiment was repeated twice.

Compound | Mortality (%) (Mean ± SE) H. bacteriophora (Hb) (H. bacteriophora [1]) | Mortality (%) (Mean ± SE) S. feltiae (Sf) (S. feltiae [2]) | further results
C=CC(O)CCCCC (centres unmarked) [1-octen-3-ol] | 91.6±2.1 | 100 | LD50 (S. carpocapsae; 24 hr): 41.01 µL; LD50 (S. feltiae [3]; 6 hr): 10.56 µL; LD50 (H. bacteriophora [4]; 6 hr): 21.72 µL; mortality [5]: very high; nematicidal activity against M. hapla [6]: strong nematicidal activity; mortality response ([6]; M. hapla, after 3 hr and 6 hr, 5 and 10 μl): dose dependent response; dead nematodes ([6]; M. hapla, after 24 hr, both doses (5 μl and 10 μl)): over 90%
C=CCCCCCC [1-octene, reference compound] | 19.4 ± 3.8 | 20.1 ± 3 | mortality (S. carpocapsae): ≤ 50%; mortality (S. feltiae [3]; after 24 hr): ≤ 50%; mortalities ([5]; EPNs, over time (3-24 hr)): extremely low
CC(O)C(C)O (centres unmarked) [2,3-Butanediol] | 11.4 ± 2.3 | 12.5 ± 7.2 | 
CCCCCC(=O)CC [3-octanone] | 100 | 100 | LD50 (S. carpocapsae; 12 hr): 94.88 µL; mortality (S. carpocapsae; all doses (5-20 μl)): all nematodes were dead at all doses; mortality (S. feltiae [3]; at all time points (3, 6, 12, 24 hr)): > 99%; LD50 (μl) (S. feltiae [3]; no LD50 calculated): a (>99% mortality from 3 hr); LD50 (H. bacteriophora [4]; 3 hr): 5.68 µL; mortality (H. bacteriophora [4]; time points later than 3 hr): exceeded 90%; mortality [5]: very high; nematicidal activity against M. hapla [6]: strong nematicidal activity; mortality ([6]; in vivo): 100%
C=C(C)[C@H]1CC=C(C)CC1 [(R)-(+)-Limonene] | 5.9 ± 1.9 | 16.7 ± 3.2 | 
CC(C)CCO [Isoamyl alcohol] | 9.7 ± 2.1 | 20.8 ± 3 | 
CC(C)CCOC=O [Isoamyl formate] | 46.6±1.8 | 58 | 
COC(=O)CC(C)C [Methyl isovalerate] | 55 ± 2.6 | 38.1 ± 7 | 
CCCCCCCCCCCCC [Tridecane] | 4.1 ± 1.6 | 32.3 ± 5 | 
CCCCCCCCCCC [Undecane] | 7.5 ± 2.7 | 25.4 ± 5.6 | 
Farnesene | 7.8 ± 3.1 | 43 ± 1.1 | 
